PubChem BioAssay (NCI)
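Step 1: Grow cells in 96-well plates. Step 2: Expose to compound for 48 hours at 5 concentrations. Step 3: Interpolate endpoints linearly; if unreached, use highest concentration. TGI: total growth inhibition.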

Tests used:
Experiment in all cases: NCI anticancer screen, dose series, 48 h
BT-549 breast = test system: BT-549 breast
SNB-75 CNS = test system: SNB-75 CNS
A549 NSCLC = test system: A549 NSCLC
KM12 colon = test system: KM12 colon
T-47D breast = test system: T-47D breast
CAKI-1 renal = test system: CAKI-1 renal
SN12C renal = test system: SN12C renal
RXF 393 renal = test system: RXF 393 renal
HCT-116 colon = test system: HCT-116 colon
HOP-92 NSCLC = test system: HOP-92 NSCLC
ACHN renal = test system: ACHN renal

Row | Structure (SMILES) | TGI (BT-549 breast) [µM] | TGI (SNB-75 CNS) [µM] | TGI (A549 NSCLC) [µM] | TGI (KM12 colon) [µM] | TGI (T-47D breast) [µM] | TGI (CAKI-1 renal) [µM] | TGI (SN12C renal) [µM] | TGI (RXF 393 renal) [µM] | TGI (HCT-116 colon) [µM] | TGI (HOP-92 NSCLC) [µM] | TGI (ACHN renal) [µM]
1 | O=C(Oc1ccccn1)c1cc2cc(CCl)ccc2oc1=O | 49.7 | 62.1 | > 100 | > 100 | > 100 | 77.3 | 56.7 | 41.3 | 69.4 | 39.3 | > 100
2 | Cn1c(=O)c(-c2ccccc2)c(N=[N+]=[N-])c2ccccc21 | > 100 | > 100 | > 100 | > 100 | > 100 | > 100 | > 100 | > 100 | > 100 | > 100 | 96.3
3 | N#CCCN(C(=O)Nc1ccccc1)[C@H]1CCCC[C@@H]1N(C(=O)Nc1ccccc1)c1ccccc1 | > 100 | > 100 | > 100 | > 100 | > 100 | > 100 | > 100 | > 100 | > 100 | > 100 | > 100
4 | CCOC(=O)NC(Nc1ccc(S(=O)(=O)Nc2nc(C)cc(C)n2)cc1)(C(=O)OCC)C(F)(F)F (stereo not drawn) | > 100 | > 100 | > 100 | > 100 | > 100 | > 100 | > 100 | > 100 | > 100 | > 100 | > 100
5 | CN=C(N=Nc1c(O)[nH]c2ccccc12)SCC(=O)c1ccc(Br)cc1 | > 100 | 27.5 | 20 | > 39.5 | > 100 | > 65.5 | > 48.7 | 19.2 | 19.7 | > 52.4 | 52.2
6 | CC1CCC(=O)C(C(=O)CC2CC(=O)N(C)C(=O)C2)C1 (stereo not drawn) | > 100 | > 100 | > 100 | > 100 | > 100 | > 100 | > 100 | > 100 | > 100 | > 100 | > 100
7 | NC(=O)C(C(N)=O)=C(O)C(=O)/C=C(\O)c1ccccc1 | > 100 | > 100 | > 100 | > 100 | > 100 | > 100 | > 100 | > 100 | > 100 | > 100 | > 100
8 | CCOC1OC(=O)c2cc3ccc4c(c3c(-c3ccc5c(c3)OCO5)c21)OCO4 (stereo not drawn) | 97.2 | 15.5 | > 100 | > 100 | > 100 | > 100 | > 100 | 97.9 | 18.6 | > 100 | > 100
9 | CC(O)C1(CNc2cc(Cl)nc(N)n2)CCC1 (stereo not drawn) | > 100 |  | > 100 | > 100 | > 100 | > 100 | > 100 | > 100 | > 100 | > 100 | > 100
10 | COC(=O)c1cc2ccc(N)nc2[nH]c1=O | > 100 | > 100 | > 100 | > 100 | > 100 | > 100 | > 100 | > 100 | > 100 | > 100 | > 100
11 | Cn1ccc(C(=O)NCCN(CCNC(=O)c2ccn(C)c(=O)c2O)CCNC(=O)c2cccc(=O)n2O)c(O)c1=O | > 100 | > 100 | > 100 | > 100 | > 100 | > 100 | > 100 | > 100 | > 100 | > 100 | > 100
12 | Cc1nn(-c2ccccc2)c2c1C(c1ccc(Cl)cc1)NC(=S)N2 (stereo not drawn) | 59.7 | > 100 | 69.5 | 64.8 | > 100 | > 100 | 47.5 | 35.3 | > 100 | 35.2 | 38.4
13 | Cc1cc2oc(=N)c(C#N)c(C)c2cc1C | > 100 | 79.8 | > 100 | > 100 | > 100 | > 100 | > 100 | 87.3 | > 100 | > 100 | > 100
14 | Fc1cc(-c2cc(-c3ccccc3)no2)c(Cl)cc1Cl | 39.8 | > 54.4 | > 41.6 | > 58.4 | > 57.7 | > 100 | > 54.4 | 16.6 | > 31.7 | 35.7 | > 59.6
